According to PubChem BioAssay AID330 (DTP/NCI, 2004):
Inconclusive results and toxic doses are left out.

System: P388 leukemia ip, CD2F1 mice, survival T/C
Assay: NCI In Vivo Anticancer Drug Screen. Data for tumor model P388 Leukemia (intraperitoneal) in CD2F1 (CDF1) mice
Conditions: endpoint: median survival time, higher = longer survival
Outline: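 Mice carrying the transplanted tumor received test compound or vehicle. Survival was recorded in each group, and the value is the treated-group measurement divided by that of the vehicle-treated control group.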

[1] = dose: 25.0 mg/kg/injection, schedule: Q01DX009 (ip), vehicle: saline
[2] = dose: 50.0 mg/kg/injection, schedule: Q01DX009 (ip), vehicle: Klucel (hydroxypropylcellulose) (HPC)
[3] = dose: 50.0 mg/kg/injection, schedule: Q01DX009 (ip), vehicle: saline
[4] = dose: 100.0 mg/kg/injection, schedule: Q01DX001 (ip), vehicle: saline
[5] = dose: 100.0 mg/kg/injection, schedule: Q01DX009 (ip), vehicle: Klucel (hydroxypropylcellulose) (HPC)
[6] = dose: 100.0 mg/kg/injection, schedule: Q01DX009 (ip), vehicle: saline
[7] = dose: 200.0 mg/kg/injection, schedule: Q01DX001 (ip), vehicle: saline
[8] = dose: 200.0 mg/kg/injection, schedule: Q01DX009 (ip), vehicle: Klucel (hydroxypropylcellulose) (HPC)
[9] = dose: 400.0 mg/kg/injection, schedule: Q01DX001 (ip), vehicle: saline
[10] = dose: 50.0 mg/kg/injection, schedule: Q01DX005 (ip), vehicle: Klucel (hydroxypropylcellulose) (HPC)
[11] = dose: 100.0 mg/kg/injection, schedule: Q01DX005 (ip), vehicle: Klucel (hydroxypropylcellulose) (HPC)
[12] = dose: 200.0 mg/kg/injection, schedule: Q01DX005 (ip), vehicle: Klucel (hydroxypropylcellulose) (HPC)

With CCS(=O)(=O)OCCCNCCCOS(=O)(=O)CC the T/C (dose: 12.5 mg/kg/injection, schedule: Q01DX001 (ip), vehicle: saline) was 124 % of control, the T/C (dose: 12.5 mg/kg/injection, schedule: Q04DX003 (ip), vehicle: saline) was 154 % of control and the T/C (dose: 25.0 mg/kg/injection, schedule: Q01DX001 (ip), vehicle: saline) was 86 % of control. For the same compound, the T/C [1] was 215 % of control, the T/C (dose: 25.0 mg/kg/injection, schedule: Q04DX003 (ip), vehicle: saline) was 160 % of control and the T/C [2] was 201 % of control. For the same compound, the T/C [3] was 268 % of control, the T/C (dose: 50.0 mg/kg/injection, schedule: Q04DX003 (ip), vehicle: saline) was 193 % of control and the T/C [4] was 156 % of control. For the same compound, the T/C [5] was 199 % of control, the T/C [6] was 277 % of control and the T/C (dose: 100.0 mg/kg/injection, schedule: Q04DX003 (ip), vehicle: saline) was 209 % of control. The T/C [7] was 173 % of control, the T/C [8] was 94 % of control and the T/C (dose: 200.0 mg/kg/injection, schedule: Q01DX009 (ip), vehicle: saline) was 175 % of control. For the same compound, the T/C (dose: 200.0 mg/kg/injection, schedule: Q04DX003 (ip), vehicle: saline) was 272 % of control and the T/C [9] was 181 % of control.

For COc1ccc(NC(=O)C2C(=O)C(=O)N(c3ccc(OC)cc3OC)C2=O)c(OC)c1 (stereo not given), the T/C [2] was 98 % of control, the T/C [5] was 100 % of control and the T/C [8] was 98 % of control.

In the case of CCOC(=O)/N=C1/CCCC(=O)C1O (stereo not given), the T/C (dose: 25.0 mg/kg/injection, schedule: Q01DX005 (ip), vehicle: Klucel (hydroxypropylcellulose) (HPC)) is reported as 102 % of control, the T/C [10] is reported as 103 % of control and the T/C [11] is reported as 93 % of control. The T/C [12] was 101 % of control.

In the case of COc1c(NC=O)c2c(c([N+](=O)[O-])c1OC)C(=O)OC2, the T/C [10] is reported as 102 % of control, the T/C [11] is reported as 99 % of control and the T/C [12] is reported as 98 % of control.

In the case of O=C1CN(c2cccc(Cl)c2)C(=O)CN1/N=C/c1ccc(O)c(O)c1, the T/C (dose: 50.0 mg/kg/injection, schedule: Q01DX005 (ip), vehicle: saline with Tween-80) is reported as 88 % of control, the T/C (dose: 100.0 mg/kg/injection, schedule: Q01DX005 (ip), vehicle: saline with Tween-80) is reported as 92 % of control and the T/C (dose: 200.0 mg/kg/injection, schedule: Q01DX005 (ip), vehicle: saline with Tween-80) is reported as 100 % of control.

Nc1ccc(S(=O)(=O)Nc2cccc3[nH]c(=O)oc23)cc1 was tested, and the T/C (dose: 50.0 mg/kg/injection, schedule: Q04DX002 (ip), vehicle: Klucel (hydroxypropylcellulose) (HPC)) was 101 % of control, the T/C (dose: 100.0 mg/kg/injection, schedule: Q04DX002 (ip), vehicle: Klucel (hydroxypropylcellulose) (HPC)) was 99 % of control and the T/C (dose: 200.0 mg/kg/injection, schedule: Q04DX002 (ip), vehicle: Klucel (hydroxypropylcellulose) (HPC)) was 100 % of control.

With CCCC1CCCCN1C (stereo not given) the T/C (dose: 3.12 mg/kg/injection, schedule: Q01DX005 (ip), vehicle: saline with Tween-80) was 105 % of control, the T/C (dose: 6.25 mg/kg/injection, schedule: Q01DX005 (ip), vehicle: saline with Tween-80) was 105 % of control and the T/C (dose: 12.5 mg/kg/injection, schedule: Q01DX005 (ip), vehicle: saline with Tween-80) was 108 % of control. The T/C (dose: 25.0 mg/kg/injection, schedule: Q01DX005 (ip), vehicle: saline with Tween-80) was 105 % of control.

With CN1CCOc2cc3nc4ccccc4nc3cc21 the T/C [1] was 107 % of control, the T/C [3] was 98 % of control and the T/C [6] was 105 % of control.

In the case of CN(C)C=C1C=c2cc(C(=O)c3ccccc3)c(=O)c(C(=O)c3ccccc3)cc2=C1, the T/C [4] is reported as 108 % of control, the T/C [7] is reported as 108 % of control and the T/C [9] is reported as 97 % of control.

With CCCCCCCCCCC(O)CCCCCCCCCC the T/C (dose: 100.0 mg/kg/injection, schedule: Q04DX003 (ip), vehicle: saline with Tween-80) was 95 % of control and the T/C (dose: 200.0 mg/kg/injection, schedule: Q04DX003 (ip), vehicle: saline with Tween-80) was 90 % of control.
